Results reported in article PMC4666356 (2015).

What was measured:
[1] = system: mt6363 (DNA, G4) AGGGACGCGGGCGGGGGATATAGGGT; experiment: CD melting at 265 nm; details: 20 mM K+; 4 uM DNA, 8 uM compound
[2] = system: mt1015 (DNA, G4) GGGCTTGATGTGGGGAGGGGTGTTTAAGGG; experiment: fluorescence lifetime; details: qualitative; decay time ~3.3 ns

dTm [1]	binding [2]	Compound
~ 30 °C	yes	C[n+]1ccccc1/C=C/c1ccc2c(c1)c1cc(/C=C/c3cccc[n+]3C)ccc1n2CCCCCCCCCCCC[N+]1(C)CCCCC1
~ 30 °C		C[n+]1ccccc1/C=C/c1ccc2c(c1)c1cc(/C=C/c3cccc[n+]3C)ccc1n2CCCCCC[N+]1(C)CCCCC1
